# Reference: patent publication US20210369669A1, “AUTOPHAGY ACTIVATORS AND INHIBITORS OF FERROPTOSIS FOR PREVENTING ACUTE RENAL FAILURE AND NEUROTOXCITY INDUCED BY CERTAIN ANTIBIOTICS” (SystaMedic Inc., priority 2018, published 2021)
# Read-outs that look alike come from different tables or passages of the source.
# Experiments:
# mouse N2a neuronal cells = conditions: cited from earlier work
# [1] = monkeys; estimated from oral studies; from U.S. Pat. No. 5,629,337; cited from earlier work
# [2] = dogs; estimated from oral studies; from U.S. Pat. No. 5,629,337; cited from earlier work
# [3] = tested on: mouse model of renal injury (colistin-induced); assay: Colistin-induced acute renal injury, mouse model; assay type: in vivo; conditions: very low doses of zileuton
# [4] = tested on: cisplatin-induced renal damage; conditions: rats; cited from earlier work
# [5] = tested on: rat model of acute renal injury (colistin-induced); assay: Colistin-induced acute renal injury in rats: serum creatinine and urea; assay type: in vivo
# Protocol: Rats were injected I.P. on the left side of the animals with a 30 mg/kg dose of colistin once a day for eight consecutive days.
# [6] = tested on: central and peripheral nerve tissues; conditions: colistin 15 mg/kg/day for 7 days in mice; cited from earlier work
# [7] = rat serum, day 1 prior to dosing, colistin 30 mg/kg I.P. once a day, zileuton 3 mg/kg I.P., edaravone 15 mg/kg I.P. or atorvastatin 25 mg/kg P.O.
# [8] = rat serum, day 4, colistin 30 mg/kg I.P. once a day, zileuton 3 mg/kg I.P., edaravone 15 mg/kg I.P. or atorvastatin 25 mg/kg P.O.
# [9] = rat serum, day 8, colistin 30 mg/kg I.P. once a day, zileuton 3 mg/kg I.P., edaravone 15 mg/kg I.P. or atorvastatin 25 mg/kg P.O.
molecule,measurement,setting,value
CCN(CC)CCCC(C)Nc1ccnc2cc(Cl)ccc12 (centres unmarked) [chloroquine],Effect on colistin-induced apoptosis,mouse N2a neuronal cells; inhibition of autophagy by chloroquine,enhances colistin-induced apoptosis
"CC(c1cc2ccccc2s1)N(O)C(N)=O (racemic) [zileuton, (±) 1-[1-(1-benzothiophen-2-yl)ethyl]-1-hydroxyurea]",elimination half-life,[1],0.333 h
same,elimination half-life,[2],7 h
same,Inhibition of colistin-induced acute renal injury,[3],potent inhibition
same,Protection against cisplatin-induced renal damage,[4],protect rats against cisplatin-induced renal damage
same,Inhibition of colistin-induced acute renal injury,"[5]; very low doses of zileuton, rat model",potent inhibition
same,Effect on colistin-induced elevation of creatinine and urea levels,"[5]; zileuton I.P. around 3 mg/kg, colistin 30 mg kg, rat",blocks the elevation of creatinine and urea levels
CC(C)c1c(C(=O)Nc2ccccc2)c(-c2ccccc2)c(-c2ccc(F)cc2)n1CC[C@@H](O)C[C@@H](O)CC(=O)O [atorvastatin],Effect on colistin-induced elevation of creatinine and urea levels,"[5]; colistin 3 mg/kg/diem over eight days, rats",blocks the elevation of creatinine and urea levels
colistin,Mitochondrial dysfunction in nerve tissues,[6],induced mitochondrial dysfunction in central and peripheral nerve tissues
same,Apoptosis of neuronal cells,mouse N2a neuronal cells; 200 μM colistin for 24 h,become apoptotic
Colistin Sulfate,Mean Creatinine Day 1,[5]; [7],0.44 mg/dL
same,Mean Urea Day 1,[5]; [7],37 mg/dL
same,Mean Creatinine Day 4,[5]; [8],0.71 mg/dL
same,Mean Urea Day 4,[5]; [8],69 mg/dL
same,Mean Creatinine Day 8,[5]; [9],0.96 mg/dL
same,Mean Urea Day 8,[5]; [9],85 mg/dL
"CC1=NN(c2ccccc2)C(=O)C1 [edaravone, 5-methyl-2-phenyl-4H-pyrazol-3-one]",Protection against cisplatin-induced renal damage,[4],protect rats against cisplatin-induced renal damage
